23 compounds from ChEMBL document CHEMBL3875196, “Novel pyrazolo[1,5-a]pyridines with improved aqueous solubility as p110α-selective PI3 kinase inhibitors” (Bioorg Med Chem Lett, 2017) can be followed below.

pIC50: −log10 of the molar value.

A short description of data set [1]: Antiproliferative activity against wild type p110alpha expressing human NZOV9 cells after 5 days by [3H]-thymidine incorporation assay. The class given is functional, cell-based.
Data set [2] can be described thus: Antiproliferative activity against wild type p110alpha expressing human NZB5 cells after 5 days by [3H]-thymidine incorporation assay. The class given is functional, cell-based. Background: Dividing cells build labelled thymidine or BrdU into new DNA.
The target of data set [3] is T1, Phosphatidylinositol 4,5-bisphosphate 3-kinase catalytic subunit delta isoform (Homo sapiens, UniProt O00329).
T1 sequence (O00329 whole entry): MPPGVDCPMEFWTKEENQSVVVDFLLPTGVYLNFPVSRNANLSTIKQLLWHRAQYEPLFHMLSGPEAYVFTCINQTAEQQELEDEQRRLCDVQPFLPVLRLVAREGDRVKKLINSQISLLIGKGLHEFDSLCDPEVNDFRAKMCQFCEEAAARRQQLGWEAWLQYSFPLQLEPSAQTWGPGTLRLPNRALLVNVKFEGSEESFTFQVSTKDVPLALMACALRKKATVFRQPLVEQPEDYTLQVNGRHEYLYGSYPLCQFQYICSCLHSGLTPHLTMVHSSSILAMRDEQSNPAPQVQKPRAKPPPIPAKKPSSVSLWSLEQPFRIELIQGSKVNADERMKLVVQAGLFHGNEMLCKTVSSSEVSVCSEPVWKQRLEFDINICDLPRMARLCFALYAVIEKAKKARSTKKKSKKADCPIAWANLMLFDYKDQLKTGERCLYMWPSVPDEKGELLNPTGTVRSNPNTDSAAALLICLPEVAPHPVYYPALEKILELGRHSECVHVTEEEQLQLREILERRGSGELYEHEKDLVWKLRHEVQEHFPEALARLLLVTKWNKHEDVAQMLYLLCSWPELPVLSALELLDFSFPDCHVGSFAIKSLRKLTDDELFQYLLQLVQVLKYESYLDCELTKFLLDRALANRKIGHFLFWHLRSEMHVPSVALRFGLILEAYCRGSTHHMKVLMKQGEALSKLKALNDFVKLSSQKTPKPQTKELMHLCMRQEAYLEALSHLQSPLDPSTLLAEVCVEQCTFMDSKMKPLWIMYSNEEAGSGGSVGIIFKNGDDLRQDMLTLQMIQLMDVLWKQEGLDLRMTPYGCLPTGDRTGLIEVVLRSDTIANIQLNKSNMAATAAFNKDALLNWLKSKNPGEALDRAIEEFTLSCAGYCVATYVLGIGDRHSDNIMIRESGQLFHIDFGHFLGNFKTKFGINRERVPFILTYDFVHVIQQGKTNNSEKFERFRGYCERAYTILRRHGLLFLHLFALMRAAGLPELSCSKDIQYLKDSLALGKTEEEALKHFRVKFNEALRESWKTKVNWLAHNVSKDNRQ
Put plainly: Inhibition of p110delta (unknown origin) using L-alpha phosphatidylinositol as substrate after 1 hr in presence of [gamma33]-ATP by thin layer chromatographic analysis.

Data set [4] concerns Mus musculus. Nature of the data set: Toxicity in NIH3 mouse assessed as change in body weight at 20 to 40 mg/kg, ip. The class given is organism-based. The note with it: in vivo.
The nature of data set [5]: Inhibition of recombinant mouse p110alpha/N-terminal His-tagged human p85alpha expressed in baculovirus infected Sf21 cells using L-alpha-phosphatidylinositol as substrate after 1 hr in presence of [gamma33]-ATP by thin layer chromatographic analysis.
The target of data set [6] is Phosphatidylinositol 4,5-bisphosphate 3-kinase catalytic subunit alpha isoform (Homo sapiens, UniProt P42336, H1047R). Put plainly: Inhibition of p110alpha H1047R mutant in human HCT116 cells assessed as suppression of PKB phosphorylation at Ser473 preincubated for 15 mins followed by insulin stimulation for 5 mins by immunoblot analysis. The class given is cell-based, HCT-116. (Immunoblotting shows a protein as a band on a membrane.)

The target of data set [7] is PI3K p110 beta/p85 alpha (Homo sapiens, UniProt P42338). Put plainly: Inhibition of recombinant human p110beta/N-terminal His-tagged human p85alpha expressed in baculovirus infected sf cells using L-alpha-phosphatidylinositol as substrate after 1 hr in presence of [gamma33]-ATP by thin layer chromatographic analysis.
Data set [8] is described as follows: Solubility of the compound in water by HPLC analysis. The class given is physicochemical.
Data set [9] in a line: Selectivity ratio of IC50 for human p110beta to IC50 for recombinant mouse p110alpha/N-terminal His-tagged human p85alpha.
Data set [10] in a line: Selectivity ratio of IC50 for p110delta (unknown origin) to IC50 for recombinant mouse p110alpha/N-terminal His-tagged human p85alpha.

PI3K p110 beta/p85 alpha, sequence (P27986 whole entry): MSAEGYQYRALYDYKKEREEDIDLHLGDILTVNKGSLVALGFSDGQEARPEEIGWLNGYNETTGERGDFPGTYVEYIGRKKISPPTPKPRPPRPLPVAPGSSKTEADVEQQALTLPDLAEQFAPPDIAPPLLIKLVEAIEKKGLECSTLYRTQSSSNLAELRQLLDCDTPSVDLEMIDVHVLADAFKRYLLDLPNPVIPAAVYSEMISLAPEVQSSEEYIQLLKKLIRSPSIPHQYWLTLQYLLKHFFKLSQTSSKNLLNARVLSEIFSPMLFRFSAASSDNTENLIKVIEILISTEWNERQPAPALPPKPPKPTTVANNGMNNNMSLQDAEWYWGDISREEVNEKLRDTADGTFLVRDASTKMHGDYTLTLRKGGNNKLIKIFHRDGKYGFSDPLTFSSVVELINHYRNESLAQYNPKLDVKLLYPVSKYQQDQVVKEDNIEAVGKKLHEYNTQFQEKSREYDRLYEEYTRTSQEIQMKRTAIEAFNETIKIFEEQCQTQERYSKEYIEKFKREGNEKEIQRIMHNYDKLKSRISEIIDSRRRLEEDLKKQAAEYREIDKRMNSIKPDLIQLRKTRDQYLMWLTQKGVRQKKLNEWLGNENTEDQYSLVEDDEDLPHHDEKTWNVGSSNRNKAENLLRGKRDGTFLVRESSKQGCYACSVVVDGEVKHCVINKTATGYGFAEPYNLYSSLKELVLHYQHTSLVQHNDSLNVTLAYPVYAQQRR
PI3K p110 beta/p85 alpha, sequence (P42338 whole entry): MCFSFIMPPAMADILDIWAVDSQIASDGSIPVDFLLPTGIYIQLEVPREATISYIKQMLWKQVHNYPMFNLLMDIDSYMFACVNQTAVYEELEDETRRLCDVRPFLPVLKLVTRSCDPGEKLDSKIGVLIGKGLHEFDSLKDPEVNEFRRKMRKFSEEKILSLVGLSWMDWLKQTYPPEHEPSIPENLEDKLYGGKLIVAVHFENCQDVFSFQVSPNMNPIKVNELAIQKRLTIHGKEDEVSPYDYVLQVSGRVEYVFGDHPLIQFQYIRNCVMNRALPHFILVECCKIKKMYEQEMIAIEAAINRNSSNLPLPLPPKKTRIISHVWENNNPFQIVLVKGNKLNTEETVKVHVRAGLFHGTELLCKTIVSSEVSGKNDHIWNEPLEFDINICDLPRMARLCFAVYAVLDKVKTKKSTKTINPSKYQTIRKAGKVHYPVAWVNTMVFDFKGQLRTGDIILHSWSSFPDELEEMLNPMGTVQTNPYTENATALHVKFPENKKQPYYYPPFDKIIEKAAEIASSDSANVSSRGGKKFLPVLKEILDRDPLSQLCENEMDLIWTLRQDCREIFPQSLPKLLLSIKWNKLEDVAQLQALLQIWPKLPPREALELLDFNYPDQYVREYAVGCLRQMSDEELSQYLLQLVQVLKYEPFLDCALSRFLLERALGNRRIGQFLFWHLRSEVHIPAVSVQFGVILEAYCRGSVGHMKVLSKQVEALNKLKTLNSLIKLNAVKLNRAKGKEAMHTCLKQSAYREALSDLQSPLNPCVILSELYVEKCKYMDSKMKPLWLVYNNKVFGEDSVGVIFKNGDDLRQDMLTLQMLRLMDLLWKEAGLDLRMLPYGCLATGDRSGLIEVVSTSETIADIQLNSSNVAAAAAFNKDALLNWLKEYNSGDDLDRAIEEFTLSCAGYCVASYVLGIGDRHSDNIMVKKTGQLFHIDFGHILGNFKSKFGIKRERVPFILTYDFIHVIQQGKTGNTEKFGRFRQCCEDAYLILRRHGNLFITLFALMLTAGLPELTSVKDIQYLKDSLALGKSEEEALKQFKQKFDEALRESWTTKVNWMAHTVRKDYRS
Phosphatidylinositol 4,5-bisphosphate 3-kinase catalytic subunit alpha isoform, sequence (P42336 whole entry H1047R, canonical isoform): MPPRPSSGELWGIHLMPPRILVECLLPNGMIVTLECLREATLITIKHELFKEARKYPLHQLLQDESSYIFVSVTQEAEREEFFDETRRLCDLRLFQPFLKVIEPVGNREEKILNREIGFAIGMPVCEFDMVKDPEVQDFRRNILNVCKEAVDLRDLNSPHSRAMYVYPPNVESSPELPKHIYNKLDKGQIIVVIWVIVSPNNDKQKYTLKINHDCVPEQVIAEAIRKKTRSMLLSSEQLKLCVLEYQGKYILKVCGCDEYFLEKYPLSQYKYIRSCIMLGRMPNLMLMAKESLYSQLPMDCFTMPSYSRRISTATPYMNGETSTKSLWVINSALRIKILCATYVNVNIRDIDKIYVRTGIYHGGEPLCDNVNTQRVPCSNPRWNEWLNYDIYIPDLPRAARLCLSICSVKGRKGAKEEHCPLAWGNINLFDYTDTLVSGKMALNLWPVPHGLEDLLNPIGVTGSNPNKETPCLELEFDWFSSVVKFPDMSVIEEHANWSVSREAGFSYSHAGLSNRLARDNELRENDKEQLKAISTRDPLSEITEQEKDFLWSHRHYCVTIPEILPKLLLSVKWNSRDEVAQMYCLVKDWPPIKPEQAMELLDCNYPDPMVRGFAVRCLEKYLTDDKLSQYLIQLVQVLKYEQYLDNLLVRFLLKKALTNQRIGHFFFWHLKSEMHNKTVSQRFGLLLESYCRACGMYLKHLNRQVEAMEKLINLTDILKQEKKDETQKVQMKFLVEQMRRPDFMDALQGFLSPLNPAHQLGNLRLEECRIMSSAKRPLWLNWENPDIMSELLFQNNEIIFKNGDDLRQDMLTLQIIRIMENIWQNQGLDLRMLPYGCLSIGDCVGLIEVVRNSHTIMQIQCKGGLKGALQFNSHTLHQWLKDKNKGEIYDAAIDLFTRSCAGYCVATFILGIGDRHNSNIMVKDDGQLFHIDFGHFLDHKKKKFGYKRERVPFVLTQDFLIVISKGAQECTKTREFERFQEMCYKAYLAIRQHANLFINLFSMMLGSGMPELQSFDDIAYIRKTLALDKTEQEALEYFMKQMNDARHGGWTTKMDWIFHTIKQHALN

The pIC50 is −log10 of the IC50, conventionally taken in molar units. Consider `CN(CCc1c[nH]cn1)c1ccc([N+](=O)[O-])cc1S(=O)(=O)N(C)/N=C/c1cnn2ccc(C#N)cc12`, for which the pIC50 in data set [1] was 7.24; in data set [2], 8.52; in data set [3] it was 7.06; in data set [5], 7.74; in data set [6] it was 7.17; in [7] it was 6.13. Moreover, in data set [4], the Activity result is “Toxic”.
The term solubility denotes the concentration that dissolves in the medium under given conditions. Read a high solubility as much dissolved substance. For the compound `CN(CCc1ccncc1)c1ccc([N+](=O)[O-])cc1S(=O)(=O)N(C)/N=C/c1cnn2ccc(C#N)cc12.Cl`, the solubility in data set [8] turned out to be 0.045 mg/mL.
Still for that read-out and setting: in the case of `CN(C)CCCN(C)c1ccc([N+](=O)[O-])cc1S(=O)(=O)N(C)/N=C/c1cnn2ccc(C#N)cc12.Cl` it was 1.2 mg/mL.
Consider `CN(C)CCCN(C)c1ccc([N+](=O)[O-])cc1S(=O)(=O)N(C)/N=C/c1cnn2ccc(C#N)cc12`, for which the negative-log IC50 (pIC50) in data set [1] was 7.60; in data set [2] it was 8.40; in data set [3] it was 7.00; in data set [5] it was 7.80; in data set [6] it was 7.14; in data set [7] it was 7.12. Further, in [4], the Activity entry is “Toxic”.
As for `CN(CCc1ccccn1)c1ccc([N+](=O)[O-])cc1S(=O)(=O)N(C)/N=C/c1cnn2ccc(C#N)cc12.Cl`, the concentration in solution in [8] (solubility) was 0.0057 mg/mL.
Same read-out and setting: in the case of `CN(CCc1c[nH]cn1)c1ccc([N+](=O)[O-])cc1S(=O)(=O)N(C)/N=C/c1cnn2ccc(C#N)cc12.Cl` it was 0.9 mg/mL.
As for `C/C(=N\N(C)S(=O)(=O)c1cc([N+](=O)[O-])ccc1N(C)CCN(C)C)c1cnn2ccc(C#N)cc12`, the negative-log IC50 (pIC50) is 6.07 in data set [1]; 5.74 in [2]; 6.18 in data set [3]; 6.48 in data set [5]; less than 6.00 in data set [7].
In turn, `CN(CCc1cccnc1)c1ccc([N+](=O)[O-])cc1S(=O)(=O)N(C)/N=C/c1cnn2ccc(C#N)cc12.Cl` had a solubility in data set [8] of 0.024 mg/mL.
For `C/C(=N\N(C)S(=O)(=O)c1cc([N+](=O)[O-])ccc1N(C)Cc1ccccn1)c1cnn2ccc(C#N)cc12`, the pIC50 is 5.64 in data set [1]; 5.66 in data set [2]; 6.24 in data set [3]; 8.28 in data set [5]; 5.03 in [7]. For the same compound, the results for the Ratio IC50 in data set [9] and in data set [10] were 40 and 100, respectively.
In the case of `CN(/N=C/c1cnn2ccc(C#N)cc12)S(=O)(=O)c1cc([N+](=O)[O-])ccc1NCc1ccccn1`, the pIC50 was 6.17 in [1]; 5.96 in data set [2]; 6.46 in data set [3]; 7.60 in [5]; less than 6.00 in [7].
In data set [8], `CN(CCn1ccnc1)c1ccc([N+](=O)[O-])cc1S(=O)(=O)N(C)/N=C/c1cnn2ccc(C#N)cc12.Cl` gave a solubility of 1 mg/mL.
Regarding `CNCCN(C)c1ccc([N+](=O)[O-])cc1S(=O)(=O)N(C)/N=C/c1cnn2ccc(C#N)cc12`, the negative logarithm of the IC50 (pIC50) in [1] is 7.96; in data set [2], 7.62; in data set [3], 6.55; in [5], 7.19; in data set [7], 6.00.
Taken in the same sequence, the figures for `CN(CCc1cccnc1)c1ccc([N+](=O)[O-])cc1S(=O)(=O)N(C)/N=C/c1cnn2ccc(C#N)cc12` were 6.13, greater than 8.70, 7.26, 8.05 and 6.74.
Taken in the same sequence, the figures for `CN(CCN1CCOCC1)c1ccc([N+](=O)[O-])cc1S(=O)(=O)N(C)/N=C/c1cnn2ccc(C#N)cc12` were 6.68, 6.59, 7.13, 7.72 and 6.00.
On the same counts, the results for `CCN(CC)CCN(C)c1ccc([N+](=O)[O-])cc1S(=O)(=O)N(C)/N=C/c1cnn2ccc(C#N)cc12` are 6.47, 6.30, 7.18, 7.12 and 6.48.
For the compound `CN(Cc1ccccn1)c1ccc([N+](=O)[O-])cc1S(=O)(=O)N(C)/N=C/c1cnn2ccc(C#N)cc12`, the pIC50 in data set [1] was 6.48; in [2], 7.05; in data set [3], 6.89; in data set [5], 8.00; in [7], 6.35.
In the case of `CN(/N=C/c1cnn2ccc(Br)cc12)S(=O)(=O)c1cc([N+](=O)[O-])ccc1OCCN1CCOCC1`, the pIC50 is 6.26 in data set [1]; 6.57 in [2]; 6.46 in data set [3]; 7.29 in [5]; 5.54 in data set [7].
On the same counts, the results for `CN(/N=C/c1cnn2ccc(C#N)cc12)S(=O)(=O)c1cc([N+](=O)[O-])ccc1OCc1ccccn1` are 6.18, 5.89, 6.02, 8.22 and 5.25.
On the same counts, the results for `CN(C)CCN(C)c1ccc(C#N)cc1S(=O)(=O)N(C)/N=C/c1cnn2ccc(C#N)cc12` are 7.33, 7.26, 6.42, 7.09 and 5.70.
Regarding `C/C(=N\NS(=O)(=O)c1cc([N+](=O)[O-])ccc1N(C)Cc1ccccn1)c1cnn2ccc(Br)cc12`, the pIC50 is 5.55 in data set [1]; 7.02 in [2]; 6.53 in data set [3]; 8.14 in data set [5]; 5.25 in data set [7]. For the same compound, the Ratio IC50 in data set [9] worked out at 800; in data set [10] it was 2000.
For `CN(CCc1ccccn1)c1ccc([N+](=O)[O-])cc1S(=O)(=O)N(C)/N=C/c1cnn2ccc(C#N)cc12`, the negative logarithm of the IC50 (pIC50) in data set [1] is 6.39; in data set [2], 8.30; in data set [3], 7.22; in data set [5], 8.05; in data set [7] it was 6.39.
Take `CN(CCc1ccncc1)c1ccc([N+](=O)[O-])cc1S(=O)(=O)N(C)/N=C/c1cnn2ccc(C#N)cc12`: the pIC50 was 6.60 in [1]; greater than 8.70 in data set [2]; 7.21 in [3]; 7.77 in [5]; 6.80 in data set [7].
For the compound `CN(CCn1ccnc1)c1ccc([N+](=O)[O-])cc1S(=O)(=O)N(C)/N=C/c1cnn2ccc(C#N)cc12`, the pIC50 is 7.35 in data set [1]; 8.30 in data set [2]; 7.00 in [3]; 7.51 in data set [5]; 6.95 in data set [6]; 6.82 in data set [7].
